# Laboratory results from patent US10696707B2, “Polyene macrolide derivative” (Shionogi & Co., Ltd., priority 2014, dated 2020).
# Where two headings read alike, the source gives them in different places.
# How the values were obtained:
# Assay type in all cases: cell-based
# [1] = test system: red blood cells (5% RBC suspension); assay: Test Example 2-1: in vitro hemolytic activity test (upper limit 50, 80, 100 or 200 μmol/L); details: 5% RBC suspension, 37° C., one hour, read-out: hemolysis IC50
# Procedure, shortened: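 A 5% suspension of washed red cells in Earle's medium was exposed to doubling dilutions of compound from DMSO, with maxima of 50, 80, 100 or 200 μmol/L final, for 1 h at 37 °C, 5% CO2. Supernatant absorbance at 540 nm was normalised to water-lysed cells. IC50 is the concentration giving 50% hemolysis; ">" values exceed the top concentration.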
# A. flavus ATCC204304 = assay: Antifungal activity test, MIC by broth microdilution (CLSI M38-A2); details: A. flavus ATCC204304, 35° C., 24-48 hours
# Procedure, shortened: (§1)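 CLSI broth microdilution in RPMI 1640 with 2% glucose, 0.165 mol/L MOPS, pH 7.0; two-fold DMSO dilutions. MIC = lowest concentration giving 100% inhibition versus growth control.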
# A. fumigatus ATCC204305 = assay: as above; details: A. fumigatus ATCC204305, 35° C., 24-48 hours
# Procedure, shortened: as §1
# C. albicans ATCC90028 = assay: Antifungal activity test, MIC by broth microdilution (CLSI M27-A3); details: C. albicans ATCC90028, 35° C., 24-48 hours
# Procedure, shortened: as §1
# [2] = test system: red blood cells (5% RBC suspension); assay: Test Example 2-2: in vitro hemolytic activity test (upper limit 200 μmol/L); details: Test Example 2-2, hemolysis method 200 (upper concentration 200 μmol/L), 5% RBC suspension, 37° C., one hour, read-out: hemolysis IC50
# Experimental: Nephrotoxic potentials of the compounds of the present invention whose X is —N(R^F)—CO—X^1 and X^1 is the group represented by formula (III) and T is —N(R^a5)— were investigated by in vitro hemolytic activity test under the condition that the upper limit was 200 μmol/L as the required concentration to 50% of hemolysis (IC50).
# Defibrinated sterile blood was centrifuged at 700×g for 3 minutes and, and the supernatant was removed for 100% of red blood cells. After the cleaning with physiological saline, the washed blood cells was suspended in the medium (Earle's balanced salt sodium, bicarbonate, 0.1 g/L L-glutamine without phenol red), and was diluted by 5% (5% RBC suspension).
# The washed blood was diluted by 5% in water for injection (solution of complete hemolysis), and was used as the indication of optical density for complete hemolysis.
# The compounds of the present invention solution in DMSO (several and doubling dilutions starting from 10 mmol/L), DMSO as the negative control, and Amphotericin B as the positive control were used, and each 5 μL of these was added in to a well of V-form 96 well type microplate. Finally, the maximum concentration of the compounds of the present invention solution in DMSO was 200 μmol/L by adding 245 μL of the medium or 5% RBC suspension into the well.
# Two hundred fifty μL of the solution of complete hemolysis was added into another well and the microplate was incubated at 37° C. in 5% of CO2 concentration for an hour.
# After the incubation, each 100 μL of supernatants in wells was collected by centrifugation of the microplate at 300×g for 5 minutes and was located on a well of flat-form 96 well type microplate. An absorbance of each supernatant was measured at wavelength of 540 nm.
# Percent hemolysis was calculated by using the followed equation. The required concentration to 50% of hemolysis (IC50) was calculated based on the percent hemolysis. […] Hemolysis (%)=(CR−VM)×100÷(VL−VR) Where:
# CR: Absorbance of 5% RBC suspension incubated with the compounds of the present invention solution in DMSO
# VM: Absorbance of medium incubated with the compounds of the present invention solution in DMSO
# VL: Absorbance of solution of complete hemolysis
# VR: Absorbance of 5% RBC suspension incubated with DMSO
# The “>200” in the table means above IC50 value exceeded the upper concentration 200 μmol/L.
# [3] = hemolysis method 50 (upper concentration 50 μmol/L)
# [4] = broth microdilution, 100% inhibition
# [5] = lowest concentration giving 100% inhibition
structure (smiles),measurement,setting,value
C[C@@H]1[C@H](O)[C@@H](C)/C=C/C=C/C=C/C=C/C=C/C=C/C=C/[C@H](O[C@@H]2O[C@H](C)[C@@H](O)[C@H](N)[C@@H]2O)C[C@@H]2O[C@](O)(C[C@@H](O)C[C@@H](O)[C@H](O)CC[C@@H](O)C[C@@H](O)CC(=O)O[C@H]1C)C[C@H](O)[C@H]2NC(=O)NC(CO)CO [I-40],IC50,"[1]; Erythrocyte, 1 h, hemolysis method 80 (upper concentration 80 μmol/L)",> 80 µM
same,MIC,"A. flavus ATCC204304; Aspergillus flavus, broth microdilution, 100% inhibition, read-out: MIC",0.5 µg/mL
same,MIC,"A. fumigatus ATCC204305; Aspergillus fumigatus, broth microdilution, 100% inhibition, read-out: MIC",0.25 µg/mL
same,MIC,"C. albicans ATCC90028; Candida albicans, broth microdilution, 100% inhibition, read-out: MIC",0.125 µg/mL
C[C@@H]1[C@H](O)[C@@H](C)/C=C/C=C/C=C/C=C/C=C/C=C/C=C/[C@H](O[C@@H]2O[C@H](C)[C@@H](O)[C@H](N)[C@@H]2O)C[C@@H]2O[C@](O)(C[C@@H](O)C[C@@H](O)[C@H](O)CC[C@@H](O)C[C@@H](O)CC(=O)O[C@H]1C)C[C@H](O)[C@H]2NC(=O)NNC(=O)c1ccccn1 [I-44],IC50,[2],> 200 µM
COC(=O)NNC(=O)N[C@H]1[C@@H]2C[C@@H](O[C@@H]3O[C@H](C)[C@@H](O)[C@H](N)[C@@H]3O)/C=C/C=C/C=C/C=C/C=C/C=C/C=C/[C@H](C)[C@@H](O)[C@@H](C)[C@H](C)OC(=O)C[C@H](O)C[C@H](O)CC[C@@H](O)[C@H](O)C[C@H](O)C[C@](O)(C[C@@H]1O)O2 [I-47],IC50,"[2]; Erythrocyte, 1 h",> 200 µM
C[C@@H]1[C@H](O)[C@@H](C)/C=C/C=C/C=C/C=C/C=C/C=C/C=C/[C@H](O[C@@H]2O[C@H](C)[C@@H](O)[C@H](N)[C@@H]2O)C[C@@H]2O[C@](O)(C[C@@H](O)C[C@@H](O)[C@H](O)CC[C@@H](O)C[C@@H](O)CC(=O)O[C@H]1C)C[C@H](O)[C@H]2NC(=O)NNCCN(C)C [I-78],IC50,"[2]; Erythrocyte, 1 h",> 200 µM
C[C@@H]1[C@H](O)[C@@H](C)/C=C/C=C/C=C/C=C/C=C/C=C/C=C/[C@H](O[C@@H]2O[C@H](C)[C@@H](O)[C@H](N)[C@@H]2O)C[C@@H]2O[C@](O)(C[C@@H](O)C[C@@H](O)[C@H](O)CC[C@@H](O)C[C@@H](O)CC(=O)O[C@H]1C)C[C@H](O)[C@H]2NC(=O)NNC(=O)CNC(=O)Nc1cccnc1 [I-123],IC50,[2],> 200 µM
C[C@@H]1[C@H](O)[C@@H](C)/C=C/C=C/C=C/C=C/C=C/C=C/C=C/[C@H](O[C@@H]2O[C@H](C)[C@@H](O)[C@H](N)[C@@H]2O)C[C@@H]2O[C@](O)(C[C@@H](O)C[C@@H](O)[C@H](O)CC[C@@H](O)C[C@@H](O)CC(=O)O[C@H]1C)C[C@H](O)[C@H]2NC(=O)NNc1ncccc1C(F)(F)F [I-124],IC50,[2],> 200 µM
C[C@@H]1[C@H](O)[C@@H](C)/C=C/C=C/C=C/C=C/C=C/C=C/C=C/[C@H](O[C@@H]2O[C@H](C)[C@@H](O)[C@H](N)[C@@H]2O)C[C@@H]2O[C@](O)(C[C@@H](O)C[C@@H](O)[C@H](O)CC[C@@H](O)C[C@@H](O)CC(=O)O[C@H]1C)C[C@H](O)[C@H]2NC(=O)NNc1ccc(C(F)(F)F)cn1 [I-125],IC50,[2],> 200 µM
C[C@@H]1[C@H](O)[C@@H](C)/C=C/C=C/C=C/C=C/C=C/C=C/C=C/[C@H](O[C@@H]2O[C@H](C)[C@@H](O)[C@H](N)[C@@H]2O)C[C@@H]2O[C@](O)(C[C@@H](O)C[C@@H](O)[C@H](O)CC[C@@H](O)C[C@@H](O)CC(=O)O[C@H]1C)C[C@H](O)[C@H]2NC(=O)NNC(=O)c1ccc(N2CCOCC2)nc1 [I-194],IC50,[2],> 200 µM
C[C@@H]1[C@H](O)[C@@H](C)/C=C/C=C/C=C/C=C/C=C/C=C/C=C/[C@H](O[C@@H]2O[C@H](C)[C@@H](O)[C@H](N)[C@@H]2O)C[C@@H]2O[C@](O)(C[C@@H](O)C[C@@H](O)[C@H](O)CC[C@@H](O)C[C@@H](O)CC(=O)O[C@H]1C)C[C@H](O)[C@H]2NC(=O)NNC(=O)c1ncccc1N [I-197],IC50,[2],> 200 µM
C[C@@H]1[C@H](O)[C@@H](C)/C=C/C=C/C=C/C=C/C=C/C=C/C=C/[C@H](O[C@@H]2O[C@H](C)[C@@H](O)[C@H](N)[C@@H]2O)C[C@@H]2O[C@](O)(C[C@@H](O)C[C@@H](O)[C@H](O)CC[C@@H](O)C[C@@H](O)CC(=O)O[C@H]1C)C[C@H](O)[C@H]2NC(=O)NNC(=O)c1cccnc1N [I-198],IC50,[2],> 200 µM
CCCC(=O)NNC(=O)N[C@H]1[C@@H]2C[C@@H](O[C@@H]3O[C@H](C)[C@@H](O)[C@H](N)[C@@H]3O)/C=C/C=C/C=C/C=C/C=C/C=C/C=C/[C@H](C)[C@@H](O)[C@@H](C)[C@H](C)OC(=O)C[C@H](O)C[C@H](O)CC[C@@H](O)[C@H](O)C[C@H](O)C[C@](O)(C[C@@H]1O)O2 [I-209],IC50,[2],> 200 µM
C[C@@H]1[C@H](O)[C@@H](C)/C=C/C=C/C=C/C=C/C=C/C=C/C=C/[C@H](O[C@@H]2O[C@H](C)[C@@H](O)[C@H](N)[C@@H]2O)C[C@@H]2O[C@](O)(C[C@@H](O)C[C@@H](O)[C@H](O)CC[C@@H](O)C[C@@H](O)CC(=O)O[C@H]1C)C[C@H](O)[C@H]2NC(=O)NC[C@H](O)CC(=O)O [I-250],IC50,[1]; [3],> 50 µM
same,MIC,A. flavus ATCC204304; [4],0.5 µg/mL
same,MIC,A. fumigatus ATCC204305; [4],1 µg/mL
same,MIC,C. albicans ATCC90028; [4],0.5 µg/mL
C[C@@H]1[C@H](O)[C@@H](C)/C=C/C=C/C=C/C=C/C=C/C=C/C=C/[C@H](O[C@@H]2O[C@H](C)[C@@H](O)[C@H](N)[C@@H]2O)C[C@@H]2O[C@](O)(C[C@@H](O)C[C@@H](O)[C@H](O)CC[C@@H](O)C[C@@H](O)CC(=O)O[C@H]1C)C[C@H](O)[C@H]2NC(=O)NC[C@H](O)C(=O)O [I-259],IC50,[1]; [3],> 50 µM
same,MIC,A. flavus ATCC204304; [4],0.5 µg/mL
same,MIC,A. fumigatus ATCC204305; [4],1 µg/mL
same,MIC,C. albicans ATCC90028; [4],0.5 µg/mL
C[C@@H]1[C@H](O)[C@@H](C)/C=C/C=C/C=C/C=C/C=C/C=C/C=C/[C@H](O[C@@H]2O[C@H](C)[C@@H](O)[C@H](N)[C@@H]2O)C[C@@H]2O[C@](O)(C[C@@H](O)C[C@@H](O)[C@H](O)CC[C@@H](O)C[C@@H](O)CC(=O)O[C@H]1C)C[C@H](O)[C@H]2NC(=O)N1CCC1C(=O)O (stereo partly drawn) [I-284],IC50,[1]; [3],> 50 µM
same,MIC,A. flavus ATCC204304; [4],0.5 µg/mL
same,MIC,A. fumigatus ATCC204305; [4],1 µg/mL
same,MIC,C. albicans ATCC90028; [4],0.5 µg/mL
C[C@@H]1[C@H](O)[C@@H](C)/C=C/C=C/C=C/C=C/C=C/C=C/C=C/[C@H](O[C@@H]2O[C@H](C)[C@@H](O)[C@H](N)[C@@H]2O)C[C@@H]2O[C@](O)(C[C@@H](O)C[C@@H](O)[C@H](O)CC[C@@H](O)C[C@@H](O)CC(=O)O[C@H]1C)C[C@H](O)[C@H]2NC(=O)NC[C@@H](O)C(=O)O [I-311],IC50,[1]; [3],> 50 µM
same,MIC,A. flavus ATCC204304; [4],0.5 µg/mL
same,MIC,A. fumigatus ATCC204305; [4],0.5 µg/mL
same,MIC,C. albicans ATCC90028; [4],0.5 µg/mL
C[C@@H]1[C@H](O)[C@@H](C)/C=C/C=C/C=C/C=C/C=C/C=C/C=C/[C@H](O[C@@H]2O[C@H](C)[C@@H](O)[C@H](NC(=N)NO)[C@@H]2O)C[C@@H]2O[C@](O)(C[C@@H](O)C[C@@H](O)[C@H](O)CC[C@@H](O)C[C@@H](O)CC(=O)O[C@H]1C)C[C@H](O)[C@H]2NC(=O)NNC(=O)[C@H](O)CO [I-380],MIC,A. flavus ATCC204304; [5],0.5 µg/mL
same,MIC,A. fumigatus ATCC204305; [5],1 µg/mL
same,MIC,C. albicans ATCC90028; [5],0.5 µg/mL
CNC(=O)N[C@H]1[C@@H]2C[C@@H](O[C@@H]3O[C@H](C)[C@@H](O)[C@H](N(CCCN)CCCN)[C@@H]3O)/C=C/C=C/C=C/C=C/C=C/C=C/C=C/[C@H](C)[C@@H](O)[C@@H](C)[C@H](C)OC(=O)C[C@H](O)C[C@H](O)CC[C@@H](O)[C@H](O)C[C@H](O)C[C@](O)(C[C@@H]1O)O2 [I-383],MIC,A. flavus ATCC204304; [5],1 µg/mL
same,MIC,A. fumigatus ATCC204305; [5],1 µg/mL
same,MIC,C. albicans ATCC90028; [5],0.25 µg/mL
